Source: patent US5747239A, “Synthetic peptides specific for the detection of antibodies to HCV, diagnosis of HCV infection and preventions thereof as vaccines” (United Biomedical, Inc., priority 1994, dated 1998)

B1: AHGIDPNIRTGVRTITTGSPITYSTYGKFLADGGCSGGAYDIIICDECHSTDATSILGIGTVLDQAETAGARLVVLATATPPGSVTVPHPNIEEVAL (peptide)
chain: AHGIDPNIRTGVRTITTGSPITYSTYGKFLADGGCSGGAYDIIICDECHSTDATSILGIGTVLDQAETAGARLVVLATATPPGSVTVPHPNIEEVAL
B2: TMRSPVFTDNSSPPVVPQSFQVAHLHAPTGSGKSTKVPAAYAAQGYKVLVLNPSVAATLGFGAYMSKAHGIDPNIRTGVRTITTGSPITYSTYGKFLADGGCSGGAYDIIICDECHS (peptide)
chain: TMRSPVFTDNSSPPVVPQSFQVAHLHAPTGSGKSTKVPAAYAAQGYKVLVLNPSVAATLGFGAYMSKAHGIDPNIRTGVRTITTGSPITYSTYGKFLADGGCSGGAYDIIICDECHS
B3: GYKVLVLNPSVAATLGFGAYMSKAHGIDPNIRTGVRTITTGSPITYSTYGKFLADGGCSGGAYDIIICDECHSTDAT (peptide)
chain: GYKVLVLNPSVAATLGFGAYMSKAHGIDPNIRTGVRTITTGSPITYSTYGKFLADGGCSGGAYDIIICDECHSTDAT
B4: GYKVLVLNPSVAATLGFGAYMSKAHGIDPNIRTGVRTITTGSPITYSTYGKFLADGGCSGGAYDIIICDECHSTDATSILGIGTVLDQAETAGARLVVLATATPPGSVTVPHPNIEEVAL (peptide)
chain: GYKVLVLNPSVAATLGFGAYMSKAHGIDPNIRTGVRTITTGSPITYSTYGKFLADGGCSGGAYDIIICDECHSTDATSILGIGTVLDQAETAGARLVVLATATPPGSVTVPHPNIEEVAL
B5: HLHAPTGSGKSTKVPAAYAAQGYKVLVLNPSVAATLGFGAYMSKAHGIDPNIRTGVRTITTGSPITYSTYGKFLADGGCSGGAYDIIICDECHS (peptide)
chain: HLHAPTGSGKSTKVPAAYAAQGYKVLVLNPSVAATLGFGAYMSKAHGIDPNIRTGVRTITTGSPITYSTYGKFLADGGCSGGAYDIIICDECHS
B6: SVAATLGFGAYMSKAHGIDPNIRTGVRTITTGSPITYSTYGKFLADGGCSGGAYDIIICDECHSTDAT (peptide)
chain: SVAATLGFGAYMSKAHGIDPNIRTGVRTITTGSPITYSTYGKFLADGGCSGGAYDIIICDECHSTDAT

Key:
Format in all cases: binding, human
[1] = tested on: antibodies to HCV; assay: Peptide ELISA for relative immunoreactivity, 8 member HCV serum panel (Panel I); details: NS-3 peptides (Tables 4B-4D), relative to pep3 (279A)
[2] = tested on: antibodies to HCV; assay: NS-1 peptide ELISA, Panel II (asymptomatic individuals, mainland China and Taiwan); details: for % IP: NS-1 peptides, Panel II (CH1-CH7), relative to pep1 (231C)
Method: Wells of 96-well plates were coated for 1 hour at 37° C. with each of the 16 peptides (designated as peptides 241A-C, 231A-E, 232A-D, 233C, 234A-C), synthesized according to sequences derived from the NS-1 region (Table 3A), at 5 ug/mL at 100 uL per well in 10 mM NaHCO3 buffer, pH 9.5. Each peptide's immunoreactivity was measured as previously described (see Example 1), using an 8 member serum panel (Panel I).
A panel of serum samples from individuals coming from regions in which hepatitis C is endemic, namely mainland China and Taiwan, were tested for evidence of reactivity to these NS-1 protein derived peptides. Twenty-four samples were chosen from individuals who had no recognizable symptoms of non-A, non-B hepatitis and for whom the peptide based HCV EIA, Format C, as described in Example 11, was nonreactive. Seven of the 24 samples (29%) were reactive against one or more peptides from the NS-1 region, indicative of the presence of long term protective antibodies responsive to this region. This 7 member panel (designated as Panel II, CH1-CH7) was used to further characterize these NS-1 peptides for their immunoreactivity.
The peptide with the greatest reactivity against the serum Panel II again was pep1 (designated 231c in Table 3A). Using this peptide as a standard, the relative immunoreactivity for each of the other 15 peptides from the NS-1 region are calculated in Table 3A.

[3] = tested on: antibodies to HCV; assay: NS-1 peptide ELISA, early and late HCV infection panels
Method: In addition, all sixteen NS-1 peptides were tested on panels of samples representing HCV-antibody positive donors (n=9) in an early stage of infection, namely plasmapheresis donors with the first occurrence of an ALT level >100 i.u./L, and those asymptomatic individuals (n=14) disqualified from blood donation because of a reactive result for anti-HIV or HBc, for whom the anti-HCV result probably represents a past infection.
These select panels were chosen from hundreds of HCV positive sera for their ability to recognize NS-1 antigens. For both groups, peptide designated as 232A (pep2) had the greatest immunoreactivity. Using pep2 as a standard, the relative immunoreactivity of each peptide was calculated (Table 3C).

[4] = tested on: antibodies to HCV; assay: Peptide ELISA for relative immunoreactivity, 8 member HCV serum panel (Panel I)
Method: As an example to illustrate how relative (%) immunoreactivity for HCV synthetic peptides is measured, wells of 96-well plates are coated for 1 hour at 37° C., with each of the following peptides: IIH, V, VIIIE and pep11 at 5 ug/mL at 100 uL per well in 10 mM NaHCO3 buffer, pH 9.5. The peptide coated wells were then incubated with 250 uL of 3% by weight of gelatin in PBS in 37° C. for 1 hour to block non-specificprotein binding sites, followed by three washes with PBS containing 0.05% by volume of TWEEN 20 and then dried. The test specimens containing a panel of eight well-characterized HCV antibody positive patient sera were diluted with PBS containing 20% by volume normal goat serum, 1% by weight gelatin and 0.05% by volume TWEEN 20 at dilutions of 1:20 volume to volume, respectively. 200 uL of the diluted specimens were added to each of the wells and allowed to react for 15 minutes at 37° C.
The wells were then washed six times with 0.05% by volume TWEEN 20 in PBS in order to remove unbound antibodies. Horseradish peroxidase conjugated goat anti-human IgG was used as a second antibody tracer to bind with the HCV antibody-peptide antigen complex formed in positive wells. 100 uL of peroxidase labeled goat anti-human IgG at a dilution of 1:1800 in 1% by volume normal goat serum, 0.05% by volume TWEEN 20 in PBS was added to each well and incubated at 37° C. for another 15 minutes.
The wells were washed six times with 0.05% by volume TWEEN 20 PBS to remove unbound antibody and reacted with 100 uL of the substrate mixture containing 0.04% by weight orthophenylenediamine (OPD) and 0.12% by volume hydrogen peroxide in sodium citrate buffer, pH 5.0.
This substrate mixture was used to detect the peroxidase label by forming a colored product. Reactions were stopped by the addition of 100 uL of 1.0M H2 SO4 and the A492 mm measured. Results of relative immunoreactivity for each of the peptides obtained from this study are shown in Table A using peptide II H as the reference.

[5] = Early HCV Infection panel, n = 9
[6] = Late HCV Infection panel, n = 14

Molecule | % Relative Immunoreactivity [1] [%] | % IP [2] [%] | % Relative Immunoreactivity in comparison to Pep2 (232A) [3, 5] [%] | % Relative Immunoreactivity in comparison to Pep2 (232A) [3, 6] [%] | also measured
AYMSKAHGIDPNIRTGVRTITTGSPITYSTYGKFLADGGCSGGAYDIIICDECHSTDAT [262E] | 3.6 |  |  |  | 
CPERLASCRPLTDFDQGWGPISYANGSGPDQRPYCWHYPPKPCGIVPAKSVCGPVYC [231E] |  | 87.6 | 70.9 | 83.4 | 
CRPLTDFDQGWGPISYANGSGPDQRPYCWHYPPKPCGIVPAKSVC [241B] |  | 92.9 | 32.7 | 75.0 | 
CRPLTDFDQGWGPISYANGSGPDQRPYCWHYPPKPCGIVPAKSVCGPVYC [231D] |  | 65.3 | 23.3 | 43.5 | 
DRSGAPTYSWGENDTDVFVLNNTRPPLGNWFGCTWMNSTGFTKVCGAPPC [232D] |  | 25.9 | 50.0 | 46.7 | Absorbance ([4]; Panel I sample 4): 785 mA; result with the remaining 7 panel members ([4]; Panel I without sample 4): negative
EAACNWTRGERCDLEDRDRSELS [234A] |  | 20.5 | 9.5 | 15.7 | A492 nm by EIA (mA) ([2]; Panel II sample CH-1): 118 mA; A492 nm by EIA (mA) ([2]; Panel II sample CH-2): 232 mA; A492 nm by EIA (mA) ([2]; Panel II sample CH-3): 64 mA; A492 nm by EIA (mA) ([2]; Panel II sample CH-4): 227 mA; A492 nm by EIA (mA) ([2]; Panel II sample CH-5): 206 mA; A492 nm by EIA (mA) ([2]; Panel II sample CH-6): 202 mA; A492 nm by EIA (mA) ([2]; Panel II sample CH-7): 151 mA
EVALSTTGEIPFYGKAIPLEVIKGGRHLIFCHSKKKCDEL [261B] | 3.1 |  |  |  | 
FLADGGCSGGAYDIIICDECHSTDATSILGIGTVLDQAETAG [279B] | 3 |  |  |  | 
GCSGGAYDIIICDECHSTDATSILGIGTVLDQAETAG [279A] | 100.0 |  |  |  | 
LHCPTDCFRKHPDATYSRCGSGPWITPRCLVDYPYRLWHWPC [233C] |  | 16.8 | 9.9 | 17.5 | A492 nm by EIA (mA) ([2]; Panel II sample CH-1): 123 mA; A492 nm by EIA (mA) ([2]; Panel II sample CH-2): 174 mA; A492 nm by EIA (mA) ([2]; Panel II sample CH-3): 72 mA; A492 nm by EIA (mA) ([2]; Panel II sample CH-4): 238 mA; A492 nm by EIA (mA) ([2]; Panel II sample CH-5): 114 mA; A492 nm by EIA (mA) ([2]; Panel II sample CH-6): 175 mA; A492 nm by EIA (mA) ([2]; Panel II sample CH-7): 89 mA
PNIRTGVRTITTGSPITYSTYGKFLADGGCSGGAYDIIICDECHSTDAT [262D] | 9.3 |  |  |  | 
QGWGPISYANGSGPDQRPYCWHYPPKPCGIVPAKSVC [241A] |  | 63.9 | 23.9 | 43.8 | 
QGWGPISYANGSGPDQRPYCWHYPPKPCGIVPAKSVCGPVYC [231C] |  | 100.0 | 88.6 | 62.7 | immunopotency index ([4]; Panel I, compared with peptide VIIIE): 13.9%; A492 nm by EIA (mA) ([2]; Panel II sample CH-1): 2237 mA; A492 nm by EIA (mA) ([2]; Panel II sample CH-2): 2472 mA; A492 nm by EIA (mA) ([2]; Panel II sample CH-3): 171 mA; A492 nm by EIA (mA) ([2]; Panel II sample CH-4): 218 mA; A492 nm by EIA (mA) ([2]; Panel II sample CH-5): 311 mA; A492 nm by EIA (mA) ([2]; Panel II sample CH-6): 247 mA; A492 nm by EIA (mA) ([2]; Panel II sample CH-7): 206 mA
RPYCWHYPPKPCGIVPAKSVCGPVYC [231A] |  | 83.2 | 46.8 | 48.4 | 
RTITTGSPITYSTYGKFLADGGCSGGAYDIIICDECHS [275A] | 18.2 |  |  |  | 
RTITTGSPITYSTYGKFLADGGCSGGAYDIIICDECHSTDATSILGIGTVLDQAETAG [279E] | 2.2 |  |  |  | 
SWGENDTDVFVLNNTRPPLGNWFGCTWMNSTGFTKVCGAPPC [232C] |  | 27.9 | 21.7 | 22.0 | 
TIFKIRMYVGGVEHRLEAACNWTRGERCDLEDRDRSELS [234C] |  | 8.8 | 12.1 | 44.5 | 
TTGSPITYSTYGKFLADGGCSGGAYDIIICDECHSTDAT [262B] | 4.7 |  |  |  | 
TVLDQAETAGARLVVLATATPPGSVTVPHPNIEEVAL [274A] | 2.0 |  |  |  | 
VFVLNNTRPPLGNWFGCTWMNSTGFTKVCGAPPC [232B] |  | 82.9 | 91.4 | 83.5 | 
VGGVEHRLEAACNWTRGERCDLEDRDRSELS [234B] |  | 17.9 | 13.2 | 20.9 | 
YGKFLADGGCSGGAYDIIICDECHSTDAT [262A] | 6.9 |  |  |  | 
B1 | 3.9 |  |  |  | 
B2 | 5.4 |  |  |  | 
B3 | 5.1 |  |  |  | 
B4 | 2.8 |  |  |  | 
B5 | 9.6 |  |  |  | 
B6 | 4.7 |  |  |  | 
